These molecules were tested against ROCK2 (Homo sapiens (Human), UniProt O75116) (assay: ROCK assay (Caliper LABCHIP peptide phosphorylation)). Details: 5 μM ATP, 1.5 μM peptide substrate.
Type: biochemical
Method: The effectiveness of compounds of the present invention as ROCK inhibitors can be determined in a 30 μL assay containing 20 mM HEPES, pH 7.5, 20 mM MgCl2, 0.015% Brij-35, 4 mM DTT, 5 μM ATP and 1.5 μM peptide substrate (FITC-AHA-AKRRRLSSLRA-OH) (SEQ ID No. 1). Compounds were dissolved in DMSO so that the final concentration of DMSO was <2%, and the reaction was initiated with Rho kinase variants. After incubation, the reaction was terminated by the addition of EDTA and the phosphorylated and non-phosphorylated peptides separated using a LABCHIP® 3000 Reader (Caliper Life Sciences). […] Compounds were tested in dose-response format, and the inhibition of kinase activity was calculated at each concentration of compound. The inhibition data were fit using a curve-fitting program to determine the IC50; i.e., the concentration of compound required to inhibit 50% of kinase activity. Representative Examples were tested in the ROCK assay described above and found having ROCK inhibitory activity. A range of ROCK inhibitory activity (IC50 values) of ≤50 μM (50000 nM) was observed. Table A below lists the ROCK IC50 values measured for the following examples.

Sequence of ROCK2 (O75116 whole entry, species assumed): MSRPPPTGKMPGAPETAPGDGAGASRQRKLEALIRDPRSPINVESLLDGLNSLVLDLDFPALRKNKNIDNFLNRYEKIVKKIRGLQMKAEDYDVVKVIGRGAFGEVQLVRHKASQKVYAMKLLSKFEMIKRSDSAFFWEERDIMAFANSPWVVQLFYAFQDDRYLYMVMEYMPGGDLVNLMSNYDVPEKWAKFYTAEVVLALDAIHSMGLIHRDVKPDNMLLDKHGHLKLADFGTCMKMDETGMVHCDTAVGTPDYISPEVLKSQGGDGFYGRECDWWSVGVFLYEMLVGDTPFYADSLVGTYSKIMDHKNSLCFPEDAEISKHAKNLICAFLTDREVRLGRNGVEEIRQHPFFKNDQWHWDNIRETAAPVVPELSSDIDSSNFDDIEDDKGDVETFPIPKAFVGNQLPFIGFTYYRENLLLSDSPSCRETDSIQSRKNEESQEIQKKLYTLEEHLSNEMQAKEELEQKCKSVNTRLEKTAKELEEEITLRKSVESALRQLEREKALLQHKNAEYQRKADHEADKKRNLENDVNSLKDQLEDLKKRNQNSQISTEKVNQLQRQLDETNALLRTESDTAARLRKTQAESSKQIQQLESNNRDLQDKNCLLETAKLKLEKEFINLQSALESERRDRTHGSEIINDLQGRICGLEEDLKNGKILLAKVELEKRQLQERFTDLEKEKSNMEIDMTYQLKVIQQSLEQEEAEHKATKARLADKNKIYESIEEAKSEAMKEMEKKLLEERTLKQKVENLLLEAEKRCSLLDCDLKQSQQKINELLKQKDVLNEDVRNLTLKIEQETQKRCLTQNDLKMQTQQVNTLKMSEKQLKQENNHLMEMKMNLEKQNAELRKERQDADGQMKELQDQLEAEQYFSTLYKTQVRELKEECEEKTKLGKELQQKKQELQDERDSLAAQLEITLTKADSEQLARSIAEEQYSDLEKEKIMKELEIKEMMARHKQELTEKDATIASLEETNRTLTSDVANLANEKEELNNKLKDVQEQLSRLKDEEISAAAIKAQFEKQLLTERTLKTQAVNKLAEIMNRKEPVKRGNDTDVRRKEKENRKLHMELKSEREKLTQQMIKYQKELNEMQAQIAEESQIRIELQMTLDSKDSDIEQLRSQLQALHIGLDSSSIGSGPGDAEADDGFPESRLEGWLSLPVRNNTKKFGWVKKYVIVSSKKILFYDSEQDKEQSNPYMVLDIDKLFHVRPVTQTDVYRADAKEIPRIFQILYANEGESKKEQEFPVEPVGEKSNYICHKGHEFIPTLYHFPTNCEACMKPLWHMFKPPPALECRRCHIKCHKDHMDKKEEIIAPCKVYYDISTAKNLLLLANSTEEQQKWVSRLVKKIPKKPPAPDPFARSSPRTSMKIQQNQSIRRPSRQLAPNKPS

Going from `CC(C)CN1CC(=O)N([C@H]2C[C@@]3(C[C@H](Oc4ncccc4C(N)=O)C3)C2)C1=O` (stereo partly shown) [Example 13, 2-{[(αR)-6-[3-(2-methylpropyl)-2,5-dioxoimidazol-idin-1-yl]spiro-[3.3]heptan-2-yl]-oxy}pyridine-3-carboxamide] to `CC[C@H](C)[C@@H]1NC(=O)N([C@H]2C[C@@]3(C[C@H](Oc4ncccc4C(N)=O)C3)C2)C1=O` (stereo partly drawn) [Example 27, 2-{[(αR)-6-[(4S)-4-[(2S)-butan-2-yl]-2,5-dioxoimidazol-idin-1-yl]spiro-[3.3]heptan-2-yl]-oxy}pyridine-3-carboxamide], the IC50 falls from 0.515 µM to 0.045 µM (11-fold). The second is the more potent here.

Compared with `C#CCC1NC(=O)N([C@H]2C[C@@]3(C[C@H](Oc4ncccc4C(N)=O)C3)C2)C1=O` (stereo partly shown) [Example 14, 2-{[(αR)-6-[2,5-dioxo-4-(prop-2-yn-1-yl)imidazol-idin-1-yl]spiro-[3.3]heptan-2-yl]oxy}pyridine-3-carboxamide], `CC[C@@H]1NC(=O)N([C@H]2C[C@@]3(C[C@H](Oc4ncccc4C(N)=O)C3)C2)C1=O` (stereo partly drawn) [Example 35, 2-{[(αR)-6-((4S)-4-ethyl-2,5-dioxo-imidazolidin-1-yl]-spiro[3.3]heptan-2-yl]oxy}pyridine-3-carboxamide] is 3-fold higher in IC50: 0.562 µM for the first, 1.66 µM for the second. The first is the more potent here.

First: CC(C)(C)OC(=O)NCCCC1NC(=O)N([C@H]2C[C@@]3(C[C@H](Oc4ncccc4C(N)=O)C3)C2)C1=O (stereo partly shown) [Example 15, tert-butyl N-(3-{2,5-dioxo-1-[(αR)-6-[(3-carbamoylpyridin-2-yl)oxy]spiro-[3.3]heptan-2-yl]imidazolidin-4-yl}propyl)-carbamate]
Second: CCCC[C@@H]1NC(=O)N([C@H]2C[C@@]3(C[C@H](Oc4ncccc4C(N)=O)C3)C2)C1=O (stereo partly drawn) [Example 28, 2-{[(αR)-6-[(4S)-4-butyl-2,5-dioxo-imidazolidin-1-yl]spiro[3.3]heptan-2-yl]oxy}pyridine-3-carboxamide]
The IC50 of the first is 13-fold higher: 0.744 µM for the first, 0.057 µM for the second. The second is the more potent here.

Going from `NC(=O)c1cccnc1O[C@H]1C[C@]2(C1)C[C@H](N1C(=O)NC3(CCC3)C1=O)C2` (stereo partly shown) [Example 16, 2-{[(αR)-6-{6,8-dioxo-5,7-diaza-spiro[3.4]octan-7-yl}spiro[3.3]-heptan-2-yl]oxy}-pyridine-3-carbox-amide] to `NC(=O)c1cccnc1O[C@H]1C[C@]2(C1)C[C@H](N1C(=O)C3CCCN3C1=O)C2` (stereo partly shown) [Example 23, 2-{[(αR)-6-{1,3-dioxo-hexahydro-1H-pyrrolo[1,2-c]imidazolidin-2-yl}spiro[3.3]-heptan-2-yl]oxy}-pyridine-3-carbox-amide], the IC50 rises from 0.902 µM to 2.02 µM (2.2-fold). The first is the more potent here.

Compared with `NC(=O)c1cccnc1O[C@H]1C[C@]2(C1)C[C@H](N1C(=O)C3CCCCN3C1=O)C2` (stereo partly shown) [Example 17, 2-{[(αR)-6-{1,3-dioxo-hexahydro-1H-piperidino[1,2-c]imidazolidin-2-yl}spiro[3.3]heptan-2-yl]oxy}pyridine-3-carboxamide], `NC(=O)c1cccnc1O[C@H]1C[C@]2(C1)C[C@H](N1C(=O)N[C@@H](CC3CC3)C1=O)C2` (stereo partly drawn) [Example 26, 2-{[(αR)-6-[(4S)-4-(cyclopropyl-methyl)-2,5-dioxo-imidazolidin-1-yl]-spiro[3.3]heptan-2-yl]oxy}pyridine-3-carboxamide] is 35-fold lower in IC50: 1.34 µM for the first, 0.038 µM for the second.

Compared with `NC(=O)c1cccnc1O[C@H]1C[C@]2(C1)C[C@H](N1C(=O)NC(CCO)C1=O)C2` (stereo partly shown) [Example 18, 2-{[(αR)-6-[2,5-dioxo-4-(2-hydroxyethyl)-imidazolidin-1-yl]spiro[3.3]-heptan-2-yl)oxy}-pyridine-3-carboxamide], `CCC[C@@H]1NC(=O)N([C@H]2C[C@@]3(C[C@H](Oc4ncccc4C(N)=O)C3)C2)C1=O` (stereo partly drawn) [Example 31, 2-{[(αR)-6-[(4S)-2,5-dioxo-4-propyl-imidazolidin-1-yl]-spiro[3.3]heptan-2-yl]oxy}pyridine-3-carboxamide] is 12-fold lower in IC50: 1.5 µM for the first, 0.123 µM for the second. The second is the more potent here.

Going from `Cn1cnc(CC2NC(=O)N([C@H]3C[C@@]4(C[C@H](Oc5ncccc5C(N)=O)C4)C3)C2=O)c1` (stereo partly shown) [Example 19, 2-{[(αR)-6-[2,5-dioxo-4-(1-methyl-4-imidazylmethyl)-imidazolidin-1-yl]spiro[3.3]heptan-2-yl]oxy}pyridine-3-carboxamide] to `NC(=O)c1cccnc1O[C@H]1C[C@]2(C1)C[C@H](N1C(=O)NC(Cc3c[nH]cn3)C1=O)C2` (stereo partly shown) [Example 22], the IC50 rises from 1.63 µM to 2.95 µM (1.8-fold). The first is the more potent here.

Going from `[H][C@]1(Oc2ncccc2C(N)=O)C[C@]2(C[C@@H](N3C(=O)N[C@@H](Cc4ccccc4)C3=O)C2)C1` (stereo partly shown) [Example 24] to `NC(=O)c1cccnc1OC1CC2(C1)CC(N1C(=O)N[C@H](Cc3ccccc3)C1=O)C2` (stereo partly drawn) [Example 34, 2-({6-[(4R)-4-benzyl-2,5-dioxo-imidazolidin-1-yl]-spiro[3.3]heptan-2-yl}oxy)pyridine-3-carboxamide], the IC50 rises from 0.197 µM to 0.539 µM (2.7-fold). The first is the more potent here.

Compared with `CC(C)(C)C[C@@H]1NC(=O)N([C@H]2C[C@@]3(C[C@H](Oc4ncccc4C(N)=O)C3)C2)C1=O` (stereo partly drawn) [Example 25, 2-{[(αR)-6-[(4S)-4-(2,2-dimethyl-propyl)-2,5-dioxo-imidazolidin-1-yl]-spiro[3.3]heptan-2-yl]oxy}pyridine-3-carboxamide], `NC(=O)c1cccnc1O[C@H]1C[C@]2(C1)C[C@H](N1C(=O)N[C@@H](CC(F)(F)F)C1=O)C2` (stereo partly drawn) [Example 32, 2-{[(αR)-6-[(4S)-2,5-dioxo-4-(2,2,2-trifluoroethyl)-imidazolidin-1-yl]-spiro[3.3]heptan-2-yl]oxy}pyridine-3-carboxamide] is 16-fold higher in IC50: 0.01 µM for the first, 0.156 µM for the second.

`NC(=O)c1cccnc1O[C@H]1C[C@]2(C1)C[C@H](N1C(=O)NC(CCC(F)(F)F)C1=O)C2` (stereo partly shown) [Example 29, 2-{[(αR)-6-[2,5-dioxo-4-(3,3,3-trifluoropropyl)-imidazolidin-1-yl]spiro[3.3]-heptan-2-yl]oxy}-pyridine-3-carbox-amide] and `CSCC[C@@H]1NC(=O)N([C@H]2C[C@@]3(C[C@H](Oc4ncccc4C(N)=O)C3)C2)C1=O` (stereo partly drawn) [Example 30, 2-{[(αR)-6-[(4S)-4-[2-(methyl-sulfanyl)ethyl]-2,5-dioxoimidazol-idin-1-yl]spiro-[3.3]heptan-2-yl]-oxy}pyridine-3-carboxamide] are within 1.5-fold of each other in IC50: 0.062 µM for the first, 0.089 µM for the second.

Going from `NC(=O)c1cccnc1O[C@H]1C[C@]2(C1)C[C@H](N1C(=O)N[C@@H](CCOCc3ccccc3)C1=O)C2` (stereo partly drawn) [Example 33, 2-{[(αR)-6-[(4S)-4-[2-(benzyloxy)-ethyl]-2,5-dioxo-imidazolidin-1-yl]-spiro[3.3]heptan-2-yl]oxy}pyridine-3-carboxamide] to `COC[C@@H]1NC(=O)N([C@H]2C[C@@]3(C[C@H](Oc4ncccc4C(N)=O)C3)C2)C1=O` (stereo partly drawn) [Example 36, 2-{[(αR)-6-[(4S)-4-(methoxymethyl)-2,5-dioxoimidazol-idin-1-yl]spiro-[3.3]heptan-2-yl]-oxy}pyridine-3-carboxamide], the IC50 rises from 0.426 µM to 2.39 µM (5.6-fold). The first is the more potent here.

Going from `[H][C@]1(Oc2ncccc2C(N)=O)C[C@]2(C[C@@H](N3C(=O)NC(CCC4CC4)C3=O)C2)C1` (stereo partly shown) [Example 37] to `CCC(C)CC1NC(=O)N([C@H]2C[C@@]3(C[C@H](Oc4ncccc4C(N)=O)C3)C2)C1=O` (stereo partly shown) [Example 41, 2-{[(αR)-6-[4-(2-methylbutyl)-2,5-dioxoimidazolidin-1-yl]spiro[3.3]-heptan-2-yl]oxy}-pyridine-3-carbox-amide], the IC50 falls from 0.044 µM to 0.019 µM (2.3-fold). The second is the more potent here.

Molecule `CCCC(C)CC1NC(=O)N([C@H]2C[C@@]3(C[C@H](Oc4ncccc4C(N)=O)C3)C2)C1=O` (stereo partly shown) [Example 39, 2-{[(αR)-6-[4-(2-methylpentyl)-2,5-dioxoimidazolidin-1-yl]spiro[3.3]-heptan-2-yl]oxy}-pyridine-3-carbox-amide] has an IC50 of 0.014 µM.

Reference: patent publication US11447487B2, “Spiroheptanyl hydantoins as rock inhibitors” (BRISTOL-MYERS SQUIBB COMPANY, priority 2017, dated 2022)
